Measured values reported in PubChem BioAssay (NCI).
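96-well plates; 48 h exposure; 5 concentrations. Endpoints by linear interpolation between flanking doses. Not reached: highest tested concentration assigned. Definition used: TGI = concentration required for complete inhibition of growth.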

Legend:
Experiment in all cases: NCI-60 cell line screen, 48 h
HOP-92 NSCLC = test system: HOP-92 NSCLC
HS 578T breast = test system: HS 578T breast
SF-268 CNS = test system: SF-268 CNS
SR leukemia = test system: SR leukemia
T-47D breast = test system: T-47D breast
HOP-62 NSCLC = test system: HOP-62 NSCLC
TK-10 renal = test system: TK-10 renal
NCI-H23 lung = test system: NCI-H23 lung
HL-60(TB) leukemia = test system: HL-60(TB) leukemia
CAKI-1 renal = test system: CAKI-1 renal
SK-OV-3 ovarian = test system: SK-OV-3 ovarian
RXF 393 renal = test system: RXF 393 renal
ACHN renal = test system: ACHN renal
HCC-2998 colon = test system: HCC-2998 colon
MDA-MB-435 = test system: MDA-MB-435

| Structure (SMILES) | TGI (HOP-92 NSCLC) [µM] | TGI (HS 578T breast) [µM] | TGI (SF-268 CNS) [µM] | TGI (SR leukemia) [µM] | TGI (T-47D breast) [µM] | TGI (HOP-62 NSCLC) [µM] | TGI (TK-10 renal) [µM] | TGI (NCI-H23 lung) [µM] | TGI (HL-60(TB) leukemia) [µM] | TGI (CAKI-1 renal) [µM] | TGI (SK-OV-3 ovarian) [µM] | TGI (RXF 393 renal) [µM] | TGI (ACHN renal) [µM] | TGI (HCC-2998 colon) [µM] | TGI (MDA-MB-435) [µM] |
| --- | --- | --- | --- | --- | --- | --- | --- | --- | --- | --- | --- | --- | --- | --- | --- |
| Cc1ccc(S(=O)(=O)N/N=C2/C3C(CC2(C)C)C2(C)CCCC3(C)C2O)cc1 (centres undefined) | 33.3 | 55.6 | > 100 | > 100 | 54.5 | > 100 | > 100 | 42.8 | > 100 | > 100 | 44.8 |  |  |  |  |
| COC(=N)c1ncn(Cc2ccccc2)c1N | > 100 | > 100 | > 100 |  | > 100 | > 100 | > 100 | > 100 |  | > 100 | > 100 | > 100 | > 100 | > 100 | > 100 |
| Cn1c2c(c3ccccc31)CC(=O)N1CCCC(C1)CC21OCCO1 (centres undefined) | > 100 |  | > 100 | > 100 | > 100 | > 100 | > 100 | > 100 | > 100 | > 100 | > 100 | > 100 | > 100 | > 100 | > 100 |
| CCCC(=O)n1[nH]c(=O)n(C(C)(C)C)c1=O |  | > 100 | > 100 | > 100 | > 100 | > 100 | > 100 | > 100 | > 100 | > 100 | > 100 | > 100 | > 100 | > 100 | > 100 |
| Cc1ccc(N(C)S(=O)(=O)c2ccccc2)cc1 |  | > 100 | > 100 | > 100 | > 100 | > 100 | > 100 | > 100 |  | > 100 | > 100 | > 100 | > 100 | > 100 | > 100 |
| c1ccc2c(c1)ncn2CCn1ccnc1 |  | > 100 | > 100 |  | > 100 | > 100 | > 100 | > 100 | > 100 |  | > 100 | > 100 | > 100 | > 100 | > 100 |
| Cc1ccc(S(=O)(=O)Nn2c(C)cc3ccc(S(=O)(=O)Nc4ccccc4[N+](=O)[O-])cc3c2=O)cc1 | > 100 | > 100 | > 100 | > 100 |  | > 100 | > 100 | > 100 | > 100 | > 100 | > 100 |  | > 100 | > 100 | > 100 |
| O=C(Nc1ccc(Cl)cc1Cl)c1cc2nc3ccccc3c(=O)n2c2ccccc12 | > 10 | > 10 | > 10 |  | > 10 | > 10 | > 10 | > 10 | > 10 | > 10 | > 10 | > 10 |  | > 10 | > 10 |
| CC(=O)N1N=C(c2ccccc2Nc2ccccc2C2=NN(C(C)=O)C(c3ccccc3)O2)OC1c1ccccc1 (centres undefined) | > 100 |  |  | > 100 | > 100 | > 100 | > 100 | > 100 |  |  | > 100 | > 100 | > 100 | > 100 | > 100 |
